Data set [1] deals with T1, Histamine H3 receptor (Homo sapiens, UniProt Q9Y5N1). Kind of data set: Binding affinity to human histamine H3 receptor.
Data set [2] has as its target T1, Histamine H3 receptor. Briefly: Inverse agonist activity at human histamine H3 receptor by GTPgammaS binding assay. Type of data set: functional.
A further data set deals with Histamine H1 receptor (Homo sapiens, UniProt P35367).
Data set [3] addresses Histamine H3 receptor (Rattus norvegicus, UniProt Q9QYN8). Kind of data set: Binding affinity to rat cortical histamine H3 receptor.
The nature of data set [4]: Oral bioavailability in rat at 1 mg/kg. Type of data set: ADME, organism-based. Conditions: in vivo.
Data set [5] in a line: Half life in rat at 1 mg/kg, po. To be noted: in vivo. Details: dose 1 mg/kg, route oral. In kind it is ADME, organism-based.
Data set [6] can be described thus: Half life in human plasma. Type of data set: ADME, cell-free.
A short description of data set [7]: Oral bioavailability in rat. Type of data set: ADME, organism-based. To be noted: in vivo.
A short description of data set [8]: Half life in rat. In kind it is ADME, organism-based. To be noted: in vivo.
The nature of data set [9]: Oral bioavailability in dog. In kind it is ADME, organism-based, Canis lupus familiaris. Conditions: in vivo.
A short description of data set [10]: Half life in dog. In kind it is ADME, organism-based, Canis lupus familiaris. To be noted: in vivo.
The nature of data set [11]: Oral bioavailability in monkey. Type of data set: ADME, organism-based, Macaca mulatta. To be noted: rhesus monkey, in vivo.
Data set [12] is described as follows: Half life in monkey. In kind it is ADME, organism-based, Macaca mulatta. To be noted: rhesus monkey, in vivo.
Data set [13] can be described thus: Oral bioavailability in dog at 1 mg/kg. In kind it is ADME, organism-based, Canis lupus familiaris. To be noted: in vivo.
Data set [14] is described as follows: Oral bioavailability in monkey at 1 mg/kg. Type of data set: ADME, organism-based, Macaca mulatta. To be noted: rhesus monkey, in vivo.
Data set [15] relates to Rattus norvegicus. Briefly: Increase in histamine release in sc dosed rat prefrontal cortex. In kind it is functional. Conditions: read-out: MED.
Data set [16] deals with Rattus norvegicus. Briefly: Increase in acetyl choline release in sc dosed rat prefrontal cortex. In kind it is functional. Conditions: read-out: MED.
For data set [17], the system named is Rattus norvegicus. Briefly: Efficacy in sc dosed novel object recognition 24 hrs delay rat model. To be noted: read-out: MED. Type of data set: functional.
The test system of data set [18] is Rattus norvegicus. Kind of data set: Increase in paraventricular histamine levels in normal rat at 15 mg/kg, po. Type of data set: functional.
The test system of another data set is Rhesus monkey. Briefly: Reduction of food intake in rhesus monkey at 1 mg/kg. In kind it is functional, Macaca mulatta. Details: scale not given: the % may be the effect or the level left.
Data set [19] in a line: Volume of distribution in rat. Type of data set: ADME, organism-based. Conditions: in vivo.
Data set [20] concerns Cavia porcellus. Kind of data set: Antiinflammatory activity in iv dosed wheal and flare guinea pig model. Conditions: read-out: ID50 (the source's name). Type of data set: functional.
Data set [21] deals with Cavia porcellus. Briefly: Antiinflammatory activity in po dosed wheal and flare guinea pig model. Type of data set: functional. Conditions: read-out: ID50 (the source's name).

Some results are limits rather than exact numbers.

T1 sequence (Q9Y5N1 whole entry): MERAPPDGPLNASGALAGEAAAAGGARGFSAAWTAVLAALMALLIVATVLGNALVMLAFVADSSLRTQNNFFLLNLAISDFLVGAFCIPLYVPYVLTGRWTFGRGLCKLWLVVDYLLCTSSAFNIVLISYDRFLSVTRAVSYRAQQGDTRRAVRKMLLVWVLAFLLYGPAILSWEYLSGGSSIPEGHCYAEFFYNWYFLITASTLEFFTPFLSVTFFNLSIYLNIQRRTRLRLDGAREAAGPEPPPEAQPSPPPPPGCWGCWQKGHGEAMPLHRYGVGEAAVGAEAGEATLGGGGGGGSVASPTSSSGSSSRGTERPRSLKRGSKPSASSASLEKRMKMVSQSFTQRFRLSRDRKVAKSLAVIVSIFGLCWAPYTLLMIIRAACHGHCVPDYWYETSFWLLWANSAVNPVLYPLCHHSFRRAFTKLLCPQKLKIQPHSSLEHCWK
Chain of Histamine H1 receptor (P35367 whole entry): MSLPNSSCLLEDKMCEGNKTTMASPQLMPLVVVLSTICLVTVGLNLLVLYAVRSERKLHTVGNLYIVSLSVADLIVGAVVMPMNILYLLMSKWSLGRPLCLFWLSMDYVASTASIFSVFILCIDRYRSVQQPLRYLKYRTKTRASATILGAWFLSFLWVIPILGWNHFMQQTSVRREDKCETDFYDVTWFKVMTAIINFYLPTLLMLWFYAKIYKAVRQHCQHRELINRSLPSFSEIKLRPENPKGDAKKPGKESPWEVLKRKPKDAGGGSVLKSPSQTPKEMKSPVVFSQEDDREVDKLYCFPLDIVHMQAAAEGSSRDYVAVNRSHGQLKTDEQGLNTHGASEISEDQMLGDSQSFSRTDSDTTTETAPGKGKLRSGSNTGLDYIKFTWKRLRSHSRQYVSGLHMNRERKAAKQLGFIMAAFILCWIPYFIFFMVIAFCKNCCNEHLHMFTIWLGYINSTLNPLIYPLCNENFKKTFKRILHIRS
Chain of Histamine H3 receptor (Rattus norvegicus, UniProt Q9QYN8) (Q9QYN8 whole entry): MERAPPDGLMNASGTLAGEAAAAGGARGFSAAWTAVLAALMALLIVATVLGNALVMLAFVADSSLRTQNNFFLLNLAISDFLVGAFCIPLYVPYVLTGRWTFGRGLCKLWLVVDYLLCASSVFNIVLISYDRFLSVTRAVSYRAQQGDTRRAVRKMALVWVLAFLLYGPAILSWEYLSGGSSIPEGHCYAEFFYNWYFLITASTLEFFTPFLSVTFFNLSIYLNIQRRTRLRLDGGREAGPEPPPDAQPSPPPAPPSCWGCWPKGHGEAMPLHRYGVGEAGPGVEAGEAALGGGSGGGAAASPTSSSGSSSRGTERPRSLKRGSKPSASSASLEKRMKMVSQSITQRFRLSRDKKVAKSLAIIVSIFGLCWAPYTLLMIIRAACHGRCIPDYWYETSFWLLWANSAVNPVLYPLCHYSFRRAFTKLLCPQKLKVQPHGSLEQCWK

For the compound `CC(C)N1CCCN(C(=O)C2CCN(c3ccc(C(F)(F)F)nc3)CC2)CC1`, the Ki at Histamine H3 receptor [1] (read-out: pKi (converted)) was 0.316 nM. The compound also had an IC50 at Histamine H3 receptor [2] of 2.51 nM.
`O=c1c2ccccc2c(Cc2ccc(Cl)cc2)nn1C[C@H]1CCCN1CCCCc1ccc(OCCCN2CCCCCC2)cc1` [GSK-1004723]: at Histamine H1 receptor, the Ki was 15.8 nM.
On to `C[C@@H](NC(=O)c1ccco1)C(=O)N1CCN(CCCOc2ccc(C(=O)C3CC3)cc2)CC1`, for which the Ki at Histamine H3 receptor [3] (read-out: pKi (converted)) is 0.631 nM.
For `C[C@H]1CC[C@H](C)N1CCCOc1ccc(-c2ccc(C(=O)N3CCOCC3)cc2)cc1` (single isomer, unassigned) [A-349,821], the Ki on Histamine H3 receptor [1] (read-out: pKi (converted)) is 1.58 nM.
For `C[C@@H]1CCCN1CCc1ccc2cc(-n3ncccc3=O)ccc2c1`, the Ki at Histamine H3 receptor [1] (read-out: Ki) is 0.8 nM. The bioavailability in data set [4] was found to be 84%. This compound had a half-life in data set [5] of 4.9 h.
For `C[C@@H](N)C(=O)N1CCN(CCCOc2ccc(C(=O)C3CC3)cc2)CC1`, on Histamine H3 receptor [1] (read-out: pKi (converted)), the Ki was 794 nM.
Still for that read-out and setting: next, `N#Cc1ccc(-c2ccc(OCCCN3CCCN(C(=O)[C@@H](Cc4cscn4)NC(=O)c4ccco4)CC3)cc2)cc1`: 1.58 nM.
`C[C@H](Cc1c[nH]cn1)/N=C(\c1ccccc1)c1ccccc1O` yielded a half-life in [6] above 24 h.
Turning to `CS(=O)(=O)c1ccc(C(=O)N2CCN(c3ccc(OC4CCN(C5CCC5)CC4)cc3)CC2)cc1`, the Ki on Histamine H3 receptor [1] (read-out: pKi (converted)) is 0.316 nM; at Histamine H1 receptor, 2510 nM. The results for the bioavailability in [7] and in data set [9] were above 50% and 90%, respectively. Further, the half-life is 2 h in data set [8] and 5 h in data set [10].
Consider `Cc1cc2ncc(-c3ccc4cc(CCN5CCC[C@H]5C)ccc4n3)c(C)n2n1`, for which the bioavailability in [7] came out at 90%. Besides, the half-life in data set [8] was 5.3 h.
For `C[C@@H]1CCCN1CCc1cc2cc(-c3cn[nH]c3)ccc2o1`, the Ki is 3.16 nM on Histamine H3 receptor [3] (read-out: pKi (converted)) and 0.501 nM at Histamine H3 receptor [1] (read-out: pKi (converted)). Also, the bioavailability in data set [7] was 26%; in data set [9], 30%; in [11] it was 8%. For the same compound, the half-life in data set [8] was 2.9 h; in data set [10], 1.7 h; in [12], 1.8 h.
As for `C[C@@H]1CCCN1CCc1cc2cc(-c3ccc(C#N)cc3)ccc2o1`, the bioavailability in data set [4] amounted to 52%; in [13], 74%; in data set [14] it was 89%.
Regarding `CCNC(=O)[C@H]1C[C@@](F)(c2ccc(CN3CCCC3)c(F)c2)C1` [PF-03654746], the minimal effective dose in the data set on Rattus norvegicus [15] is 1 mg/kg; with Rattus norvegicus [16] it was 3.2 mg/kg; with Rattus norvegicus [17], 0.32 mg/kg.
For the compound `O=C(/C=C/c1ccc(C(F)(F)F)cc1)N1CCC[C@H]1CN1CCCC1`, the Activity amounted to 339% in the data set with Rattus norvegicus [18] and 75% in the data set on Rhesus monkey.
Regarding `c1cc(OCCCN2CCCCC2)ccc1CN1CCCCC1` [JNJ-5207852], in data set [8], the half-life was 15 h. This compound came in with a distribution volume (Vd) in data set [19] above 100 L/kg.
`C[C@@H]1CCCN1CCc1ccc2cc(-c3ccc(C#N)cc3)ccc2c1` had a half-life in data set [8] of 5.5 h.
On to `CNC(=O)c1ccc(Oc2ccc3c(c2)CCN(C2CCC2)CC3)nc1` [GSK189254], for which the Ki at Histamine H3 receptor [3] (read-out: pKi (converted)) was 0.631 nM.
For the compound `CC(C)(C)CCC#C[C@@H]1C[C@H]1c1c[nH]cn1` [CIPRALISANT], on Histamine H3 receptor [3] (read-out: Ki), the Ki is 0.18 nM.
`CC1(C)CCCN(CCCOc2ccc(C3CCN(C(=O)c4ccc(CCC(=O)O)c5ccccc45)CC3)cc2)C1`: the Ki at Histamine H3 receptor [1] (read-out: pKi (converted)) is 50.1 nM; at Histamine H1 receptor it was 12.6 nM. Besides, the ED50 with Cavia porcellus [20] amounted to 0.6 mg/kg; in the data set with Cavia porcellus [21], 2.8 mg/kg.

These data come from ChEMBL document CHEMBL2150959, “Histamine H3 receptor as a drug discovery target” (J Med Chem, 2011).
